Experimental data as given in paper PMC7416749 (Journal of genetics and genomics = Yi chuan xue bao, 2020).

Assays:
[1] = test system: dP75 IBD-containing C-terminus region (residues 209–445); assay: Isothermal titration calorimetry; assay type: binding, Drosophila; conditions: ITC, 20 °C, mutant peptides 984–1004 compared with wild type
[2] = molecular target: dP75 IBD-containing C-terminus region (residues 209–445) (Drosophila melanogaster); assay: ITC

Molecule | effect of substitution in Jil-1 peptide 984–1004 on binding to dP75 (in words) [1] | Kd [2] [µM]
F989A: Jil-1 peptide 984–1004 with F989A substitution (EVQADAYGFDENAPPLPLPEE; UniProt Q9V3I5 984-1004, looked up, variant F989A) | dramatically reduced the binding | –
F992A: Jil-1 peptide 984–1004 with F992A substitution (EVQADFYGADENAPPLPLPEE; UniProt Q9V3I5 984-1004, looked up, variant F992A) | dramatically reduced the binding | –
G991V: Jil-1 peptide 984–1004 with G991V substitution (EVQADFYVFDENAPPLPLPEE; UniProt Q9V3I5 984-1004, looked up, variant G991V) | dramatically reduced the binding | –
Jil-1 peptide from the proximal site (…; residues 984–1004) | – | 0.8
KREENFYGFSK [Jil-1 peptide at the distal site (…; residues 1102–1112)] | – | 120
